From ChEMBL document CHEMBL1201862, “PubChem BioAssay data set” (2004) come the findings set out here.

Calls of active or inactive are those of the source.

Experiment [1] is described as follows: general mammalian cell viability loss – inhibitor set, cherry-pick, set 2, cytotoxicity control for miR-122 modulator project, dose response (AID 720697). The experiment is classed as functional, cell-based.
Experiment [2] has as its target Latent membrane protein 1 (Human herpesvirus 4 (strain B95-8), UniProt P03230). Kind of experiment: LMP1 TES1 pathway selectivity over dsRED control – imaging, HEK293T, dual-color eGFP/dsRED, cherry-picks, selectivity assay for LMP1 NF-kB inhibitor project, dose response (AID 588398). It counts as functional, cell-based.
The target in experiment [3] is T1, Neuropeptide Y receptor type 1 (Homo sapiens, UniProt P25929).
T1 sequence (P25929 whole entry): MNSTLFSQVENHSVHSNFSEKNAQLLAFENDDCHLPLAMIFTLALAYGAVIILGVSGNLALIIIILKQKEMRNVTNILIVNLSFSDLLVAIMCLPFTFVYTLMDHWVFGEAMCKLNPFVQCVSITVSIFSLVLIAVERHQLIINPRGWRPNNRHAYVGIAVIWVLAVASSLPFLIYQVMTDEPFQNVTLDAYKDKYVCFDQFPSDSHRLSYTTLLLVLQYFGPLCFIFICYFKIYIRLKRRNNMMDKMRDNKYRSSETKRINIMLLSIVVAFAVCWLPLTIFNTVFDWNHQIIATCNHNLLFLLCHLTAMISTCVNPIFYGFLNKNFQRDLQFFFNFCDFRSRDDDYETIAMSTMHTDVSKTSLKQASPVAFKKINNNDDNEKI
As to the kind of experiment: Fluorescence-based counterscreen for agonists of NPY-Y2: cell-based high-throughput dose response assay for agonists of NPY-Y1. It counts as functional. A general note: A counterscreen serves to expose hits that act by an unwanted route or on another target.

Experiment [4] is described as follows: HEK-293T viability loss after treatment – luminescence, T-cell screen hits, cytotoxicity control for TCR NF-kB inhibitor project, dose response (AID 489026).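 Also: cells exposed to compound about 14 hours before the viability readout.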 The experiment is classed as functional, cell-based.
Experiment [5] deals with BJ. As to the kind of experiment: BJ-TERT-LT-ST fibroblast viability loss – cell-based, RAS-independent, luminescence, dose response (AID 1935).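 Also: BJ fibroblasts immortalized with TERT plus LT and ST oncogenes.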 The experiment is classed as functional. The following applies: Homo sapiens.
The subject of experiment [6] is INS1. Kind of experiment: INS-1E survival protection against cytokine death – cell-based, luminescence, retest, dose response (AID 449756).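 Also: cell death triggered by IL-1 beta plus TNF-alpha plus IFN-gamma mixture; protective hits raise ATP signal compared with cytokine alone wells.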 The following applies: Rattus norvegicus. The experiment is classed as functional.
Experiment [7] has as its system BJ. As to the kind of experiment: cells. The conditions noted are these: Homo sapiens. The experiment is classed as functional, cell-based.
In experiment [8] the test system is BJ. Kind of experiment: growth inhibition of engineered Ras-driven BJ cells – cell-based, alamar blue fluorescence, cherrypicked samples, dose response (AID 2631).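 Also: confirmatory dose-response assay in RAS-dependent BJ fibroblasts engineered with TERT, LT and ST, with cytotoxicity read by fluorescence.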 The following applies: Homo sapiens. The experiment is classed as functional. A general note: The colour change of resazurin is a common sign of viable cells or microbes.
Experiment [9] addresses Sphingosine 1-phosphate receptor 2 (Homo sapiens, UniProt O95136). Kind of experiment: Dose Response Cell Based Assay for Antagonists of the S1P2 Receptor. [Related pubchem assays: 856, 736 ]. The experiment is classed as functional.
Experiment [10] has as its target T2, Neuropeptide Y receptor type 2 (Homo sapiens, UniProt P49146).
T2 sequence (P49146 whole entry): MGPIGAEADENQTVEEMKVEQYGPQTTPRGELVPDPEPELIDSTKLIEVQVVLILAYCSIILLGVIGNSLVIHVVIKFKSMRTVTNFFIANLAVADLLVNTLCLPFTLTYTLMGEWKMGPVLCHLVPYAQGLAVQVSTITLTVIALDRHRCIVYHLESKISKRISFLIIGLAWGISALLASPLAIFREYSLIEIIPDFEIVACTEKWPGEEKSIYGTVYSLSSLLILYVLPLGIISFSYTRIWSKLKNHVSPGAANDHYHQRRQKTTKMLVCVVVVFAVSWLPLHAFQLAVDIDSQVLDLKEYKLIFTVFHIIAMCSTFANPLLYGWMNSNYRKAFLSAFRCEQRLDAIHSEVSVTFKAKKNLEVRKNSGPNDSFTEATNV
Kind of experiment: Fluorescence-based cell-based high-throughput dose response assay for agonists of NPY-Y2. [Related pubchem assays: 1703 (Screening assay (CNGC inhibitors).), 1359 (Screening assay (NPY-Y2 potentiators or agonists).), 1304 (Screening assay (NPY-Y1 potentiators or agonists).), 1710 (Screening assay (NPY-Y2 agonists).), 1791 (Summary AID.)]. It counts as functional.

Experiment [11] concerns HEK293. Kind of experiment: EBV LMP1 TES2 canonical NF-kB signalling blockers – cell-based, HEK293, luciferase, cherry-pick, dose response (AID 588343). The experiment is classed as functional. The following applies: Homo sapiens.
The nature of experiment [12]: activation of miR-122 Renilla sensor silencing – cell-based, Huh7 psiCHECK-miR122, Renilla luciferase, cherry-picked, dose response (AID 651956).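 Also: huh7 hepatoma cells stably carrying a psiCHECK-2 miR-122 sensor plasmid; renilla luciferase signal reporting endogenous miR-122 activity after 48 h compound exposure.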 It counts as functional.
Experiment [13] can be described thus: Luminescence-based dose response cell-based high throughput screening assay for cytotoxic compounds using the IEC-6 intestinal epithelial cell line. [Related pubchem assays: 1858 (Summary AID.), 1825 (Counterscreen.), 1907 (Confirmation screen.)]. It counts as functional.
Experiment [14] is described as follows: luciferase reporter signal suppression in cells – H4 neuroglioma cells, luminescence, dose response (AID 1990). The experiment is classed as functional, cell-based. A general note: In a reporter assay the amount or activity of a reporter protein is the signal.
The nature of experiment [15]: DRD fibroblast viability loss – cell-based, non-viral oncogenic, luminescence, dose response (AID 1934). The experiment is classed as functional. The following applies: Homo sapiens.
In experiment [16] the test system is BJ. As to the kind of experiment: BJ-TERT fibroblast viability loss – cell-based, RAS-independent, luminescence, dose response (AID 1933). The experiment is classed as functional. The conditions noted are these: Homo sapiens.
A short description of experiment [17]: Luminescence Cell-Based Dose Response HTS to Identify Inhibitors of 5'UTR Stem-Loop Driven Prion Protein mRNA Translation in H4 Neuroglioblastoma Cells. [Related pubchem assays: 1827 (Project Summary), 1813 (Primary HTS)]. It counts as functional.
Experiment [18] deals with HEK293. As to the kind of experiment: Fluorescence-based counterscreen for potentiators or agonists of NPY-Y2: cell-based high-throughput dose response assay to identify inhibitors of cyclic nucleotide gated ion channel (CNGC) activity. In this assay, the parental HEK293 cell line transfected with a cyclic-nucleotide gated ion channel (CNGC)-based cAMP sensor is used to measure inhibition of isoproterenol-induced CNGC activity by test compound. The experiment is classed as functional. The conditions noted are these: Homo sapiens.

A short description of experiment [19]: general mammalian cell viability loss – activator set, cherry-pick, cytotoxicity control for miR-122 modulator project, dose response (AID 720690).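 Also: HEK293T human cells scored for general mammalian cytotoxicity.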 The experiment is classed as functional, cell-based.
Experiment [20] in a line: alpha-synuclein stem-loop luciferase translation blockers – H4 neuroglioma cells, luminescence, confirmation (AID 1988). The experiment is classed as functional, cell-based.
Experiment [21] concerns the target Peroxisome proliferator-activated receptor gamma/Nuclear receptor coactivator 1 (Homo sapiens, UniProt P37231). The experiment is classed as functional.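 Also: agonist potency as compounds enhance coactivator SRC-1 recruitment to PPARgamma.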
In experiment [22] the target is T3, Endoribonuclease toxin MazF (Escherichia coli K-12, UniProt P0AE70). Kind of experiment: activation of MazEF endoribonuclease cleavage – biochemical, fluorescence, single-stranded RNA substrate, uHTS hits, dose response (AID 588481). It counts as functional.
T3 sequence (P0AE70 whole entry): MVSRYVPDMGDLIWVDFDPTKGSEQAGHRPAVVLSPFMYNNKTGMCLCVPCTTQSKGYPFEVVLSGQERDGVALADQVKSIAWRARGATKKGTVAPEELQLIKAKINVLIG
Another experiment has as its system Streptococcus. As to the kind of experiment: GAS UMAA2166 growth inhibition – luminescence, BacTiterGlo, counter-screen for streptokinase expression inhibitor project, dose response (AID 1915).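 Also: potency for reduction of bacterial viability or growth.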 It counts as functional, organism-based.
For experiment [23], the system named is Streptococcus sp. 'group A'. As to the kind of experiment: Streptococcus pyogenes SK(-)GAS viability under kanamycin – luminescence, BacTiterGlo, confirmation, counter-screen for streptokinase expression inhibitor project, dose response (AID 1900). The experiment is classed as functional, organism-based.
Experiment [24] deals with T3, Endoribonuclease toxin MazF. As to the kind of experiment: substrate-only fluorescence increase artefacts – biochemical, single-stranded RNase substrate, counter-screen for MazEF activator project, dose response (AID 588502). It counts as functional.
For experiment [25], the target named is Peroxisome proliferator-activated receptor gamma/Nuclear receptor coactivator 3 (Homo sapiens, UniProt P37231). The experiment is classed as functional.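 Also: agonist potency for raising coactivator recruitment to the receptor.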
Experiment [26] deals with Peroxisome proliferator-activated receptor gamma/Nuclear receptor coactivator 2 (Homo sapiens, UniProt P37231). It counts as functional.
Peroxisome proliferator-activated receptor gamma/Nuclear receptor coactivator 2, sequence (P37231 whole entry): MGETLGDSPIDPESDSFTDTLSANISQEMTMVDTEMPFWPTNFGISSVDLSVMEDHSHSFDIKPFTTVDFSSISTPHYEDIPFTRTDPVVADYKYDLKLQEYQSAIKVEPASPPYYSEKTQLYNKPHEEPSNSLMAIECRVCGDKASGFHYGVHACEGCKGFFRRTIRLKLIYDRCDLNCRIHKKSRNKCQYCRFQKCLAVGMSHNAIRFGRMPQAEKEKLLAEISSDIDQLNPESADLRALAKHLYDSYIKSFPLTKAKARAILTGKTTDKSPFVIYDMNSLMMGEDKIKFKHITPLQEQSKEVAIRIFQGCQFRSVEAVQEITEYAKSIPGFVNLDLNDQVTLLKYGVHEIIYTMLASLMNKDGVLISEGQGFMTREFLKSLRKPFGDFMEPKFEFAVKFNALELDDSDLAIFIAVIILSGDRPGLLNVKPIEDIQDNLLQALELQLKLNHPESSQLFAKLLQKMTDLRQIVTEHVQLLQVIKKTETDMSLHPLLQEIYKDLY
Peroxisome proliferator-activated receptor gamma/Nuclear receptor coactivator 2, sequence (Q15596 whole entry, further chain): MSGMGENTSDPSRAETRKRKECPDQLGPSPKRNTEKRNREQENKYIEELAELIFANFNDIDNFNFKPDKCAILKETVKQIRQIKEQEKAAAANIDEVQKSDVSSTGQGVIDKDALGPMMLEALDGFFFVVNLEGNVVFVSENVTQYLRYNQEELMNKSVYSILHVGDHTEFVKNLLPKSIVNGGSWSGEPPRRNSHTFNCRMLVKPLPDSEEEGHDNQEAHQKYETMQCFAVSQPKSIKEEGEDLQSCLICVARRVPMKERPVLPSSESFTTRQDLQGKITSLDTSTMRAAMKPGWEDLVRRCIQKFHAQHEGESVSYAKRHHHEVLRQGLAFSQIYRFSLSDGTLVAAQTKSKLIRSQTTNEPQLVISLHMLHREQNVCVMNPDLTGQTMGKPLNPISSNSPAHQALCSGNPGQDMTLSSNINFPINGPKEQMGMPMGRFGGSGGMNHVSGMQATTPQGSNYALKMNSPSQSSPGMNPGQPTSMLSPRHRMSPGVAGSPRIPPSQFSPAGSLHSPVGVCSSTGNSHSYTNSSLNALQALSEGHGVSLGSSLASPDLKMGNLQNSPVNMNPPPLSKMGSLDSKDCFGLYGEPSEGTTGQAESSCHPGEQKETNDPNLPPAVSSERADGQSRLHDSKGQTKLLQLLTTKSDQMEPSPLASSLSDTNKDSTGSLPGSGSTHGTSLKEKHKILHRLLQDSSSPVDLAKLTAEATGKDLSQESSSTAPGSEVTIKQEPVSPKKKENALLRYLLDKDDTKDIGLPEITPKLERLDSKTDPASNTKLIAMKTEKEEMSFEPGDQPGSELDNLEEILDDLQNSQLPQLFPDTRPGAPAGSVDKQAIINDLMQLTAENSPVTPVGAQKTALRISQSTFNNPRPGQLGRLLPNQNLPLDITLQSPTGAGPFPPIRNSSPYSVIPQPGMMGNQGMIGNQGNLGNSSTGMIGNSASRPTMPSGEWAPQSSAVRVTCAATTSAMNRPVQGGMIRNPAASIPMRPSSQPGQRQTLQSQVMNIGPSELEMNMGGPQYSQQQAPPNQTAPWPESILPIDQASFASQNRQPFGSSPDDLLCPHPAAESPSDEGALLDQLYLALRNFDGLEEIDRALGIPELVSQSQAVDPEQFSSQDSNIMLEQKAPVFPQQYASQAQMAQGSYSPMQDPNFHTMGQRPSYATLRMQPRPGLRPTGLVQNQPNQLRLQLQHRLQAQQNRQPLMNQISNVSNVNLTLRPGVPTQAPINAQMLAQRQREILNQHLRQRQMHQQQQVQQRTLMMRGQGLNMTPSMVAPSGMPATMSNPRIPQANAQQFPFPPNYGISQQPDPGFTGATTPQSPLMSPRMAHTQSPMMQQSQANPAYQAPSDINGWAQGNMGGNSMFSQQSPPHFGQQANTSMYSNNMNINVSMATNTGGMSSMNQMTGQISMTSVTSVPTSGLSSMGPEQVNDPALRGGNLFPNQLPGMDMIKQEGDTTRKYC
Experiment [27] deals with Cyclin-dependent kinase 2 (Homo sapiens, UniProt P24941). Kind of experiment: inhibition of human CDK2/cyclin A – biochemical, cherry-picked samples, selectivity assay for Dyrk1A inhibitor project, dose response (AID 602127).
For experiment [28], the target named is Dual specificity protein kinase CLK1 (Homo sapiens, UniProt P49759). As to the kind of experiment: inhibition of human CLK1 activity – biochemical, cherry-picked samples, selectivity assay for Dyrk1A inhibitor project, dose response (AID 588811).
Dual specificity protein kinase CLK1, sequence (P49759 whole entry): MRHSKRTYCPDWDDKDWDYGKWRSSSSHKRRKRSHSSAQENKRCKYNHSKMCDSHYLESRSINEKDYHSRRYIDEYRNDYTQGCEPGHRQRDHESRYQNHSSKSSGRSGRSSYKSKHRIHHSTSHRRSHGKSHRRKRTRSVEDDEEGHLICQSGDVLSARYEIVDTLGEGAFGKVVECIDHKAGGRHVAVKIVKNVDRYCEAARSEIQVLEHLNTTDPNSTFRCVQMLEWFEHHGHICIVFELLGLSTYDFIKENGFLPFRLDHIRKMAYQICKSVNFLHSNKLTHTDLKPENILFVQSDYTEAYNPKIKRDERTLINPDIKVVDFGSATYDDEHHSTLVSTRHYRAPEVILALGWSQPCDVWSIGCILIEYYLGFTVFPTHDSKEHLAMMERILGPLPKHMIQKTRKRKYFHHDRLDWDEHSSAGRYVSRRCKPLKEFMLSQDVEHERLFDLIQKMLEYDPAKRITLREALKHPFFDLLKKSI
In experiment [29] the test system is INS1. As to the kind of experiment: suppression of NO production in INS-1E cells – cell-based, Griess absorbance, dry powder, set 2, dose response (AID 488868). The conditions noted are these: Rattus norvegicus. It counts as functional.

Peroxisome proliferator-activated receptor gamma/Nuclear receptor coactivator 1, sequence (P37231 whole entry): as the sequence (P37231 whole entry) above
Peroxisome proliferator-activated receptor gamma/Nuclear receptor coactivator 1, sequence (Q15788 whole entry, further chain): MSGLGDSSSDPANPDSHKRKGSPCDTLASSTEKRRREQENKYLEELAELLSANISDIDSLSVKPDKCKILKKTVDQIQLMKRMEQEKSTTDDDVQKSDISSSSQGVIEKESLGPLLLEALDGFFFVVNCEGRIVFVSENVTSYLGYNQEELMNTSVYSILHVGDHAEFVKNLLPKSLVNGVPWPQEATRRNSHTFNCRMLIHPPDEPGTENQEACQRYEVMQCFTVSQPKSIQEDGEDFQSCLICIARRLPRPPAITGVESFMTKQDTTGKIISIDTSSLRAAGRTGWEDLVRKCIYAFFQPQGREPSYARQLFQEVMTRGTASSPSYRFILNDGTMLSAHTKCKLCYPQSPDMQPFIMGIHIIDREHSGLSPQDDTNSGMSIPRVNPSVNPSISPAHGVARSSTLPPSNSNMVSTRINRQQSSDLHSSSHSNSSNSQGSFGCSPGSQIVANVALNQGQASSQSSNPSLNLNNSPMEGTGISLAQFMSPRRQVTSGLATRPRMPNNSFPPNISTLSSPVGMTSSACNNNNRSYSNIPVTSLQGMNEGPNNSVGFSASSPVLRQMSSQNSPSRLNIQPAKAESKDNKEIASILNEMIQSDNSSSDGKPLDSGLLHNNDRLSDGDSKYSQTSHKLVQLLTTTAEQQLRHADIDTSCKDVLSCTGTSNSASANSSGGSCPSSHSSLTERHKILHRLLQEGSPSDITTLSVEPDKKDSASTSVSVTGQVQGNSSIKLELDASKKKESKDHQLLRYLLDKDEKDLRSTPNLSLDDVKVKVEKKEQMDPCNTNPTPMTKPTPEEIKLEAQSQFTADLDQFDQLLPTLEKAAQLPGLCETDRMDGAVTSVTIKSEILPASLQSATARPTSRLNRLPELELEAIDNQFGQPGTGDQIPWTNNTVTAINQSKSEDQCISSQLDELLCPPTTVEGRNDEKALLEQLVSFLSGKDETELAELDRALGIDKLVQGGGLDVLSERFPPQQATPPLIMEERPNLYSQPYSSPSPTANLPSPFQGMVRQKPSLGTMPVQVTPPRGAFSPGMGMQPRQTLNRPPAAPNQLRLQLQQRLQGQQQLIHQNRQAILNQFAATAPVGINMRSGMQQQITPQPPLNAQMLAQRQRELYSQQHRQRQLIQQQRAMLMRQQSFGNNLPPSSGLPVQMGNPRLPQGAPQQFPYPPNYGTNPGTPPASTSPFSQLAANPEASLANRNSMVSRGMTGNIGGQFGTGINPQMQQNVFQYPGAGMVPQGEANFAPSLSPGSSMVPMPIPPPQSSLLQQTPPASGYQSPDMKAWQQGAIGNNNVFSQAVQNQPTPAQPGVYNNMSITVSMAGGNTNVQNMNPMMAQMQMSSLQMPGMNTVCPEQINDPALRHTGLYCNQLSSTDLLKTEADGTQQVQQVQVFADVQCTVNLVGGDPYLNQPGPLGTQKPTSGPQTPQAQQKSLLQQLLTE
Sphingosine 1-phosphate receptor 2, sequence (O95136 whole entry): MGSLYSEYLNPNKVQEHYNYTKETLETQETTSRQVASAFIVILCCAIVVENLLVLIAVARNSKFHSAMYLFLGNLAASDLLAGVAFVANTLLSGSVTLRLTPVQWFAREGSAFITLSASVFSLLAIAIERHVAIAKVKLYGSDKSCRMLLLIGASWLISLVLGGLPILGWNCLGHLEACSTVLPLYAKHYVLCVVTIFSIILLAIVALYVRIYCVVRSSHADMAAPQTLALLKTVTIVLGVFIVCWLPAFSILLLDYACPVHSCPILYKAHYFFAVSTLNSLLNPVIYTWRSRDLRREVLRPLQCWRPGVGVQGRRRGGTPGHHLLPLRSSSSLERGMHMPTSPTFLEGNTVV

`O=C(NC(Nc1nc2ccc([N+](=O)[O-])cc2s1)(C(F)(F)F)C(F)(F)F)c1ccccc1`: the AC50 in [1] is < 195 nM (active); in experiment [2] it was 816 nM (active); in the experiment with INS1 [6], 298 nM (active); in the experiment with HEK293 [11], 208 nM (active); in experiment [12] it was 1.41 µM (active); in experiment [19], 546 nM (active). For the same molecule, the EC50 in experiment [3] was 35.3 µM (not active); in the experiment with BJ [5], 2.85 µM (inconclusive); in the experiment with BJ [7] it was 1.34 µM (active); in the experiment with BJ [8], 727 nM (active); in experiment [10], 31.9 µM (not active); in [14] it was 394 nM (active). The EC50 in experiment [15] is 1.66 µM (active); in the experiment on BJ [16] it was 1.41 µM (active); in [17] it was 7.5 µM (active); in the experiment with HEK293 [18] it was > 35.4 µM (not active); in experiment [20], 449 nM (active). The IC50 in experiment [4] is > 80 µM (inactive); in [9], 682 nM (active); in [13], 1.03 µM (active).
Regarding `N#Cc1ccc(-c2ccccc2)nc1SCC(=O)c1cc2ccccc2oc1=O`, the 50% effective concentration (EC50) in [21] is 15.5 µM (not active); in experiment [22] it was > 99 µM (inactive); in the experiment with Streptococcus, 2.22 µM (active); in experiment [23], 862 nM (active); in [24], > 99 µM (inactive); in [25], 16.4 µM (not active). Also, the EC50 in experiment [26] is 13.7 µM (not active).
Consider `Cc1ccsc1CN(C)c1ncnc2ccc(-c3ccoc3)cc12`, for which the AC50 is 7.77 µM (active) in experiment [27] and 13.8 nM (active) in [28].
For `C[C@@H]1CN([C@@H](C)CO)C(=O)c2cccc(NS(=O)(=O)c3ccccc3)c2O[C@H]1CN(C)Cc1ccc(C(F)(F)F)cc1`, the AC50 in the experiment with INS1 [29] was 242 µM (active).

One may read the AC50 as the midpoint of the concentration-response curve, whichever way the signal moves. The EC50 is the concentration that produces a half-maximal response. By IC50 is commonly meant the concentration that inhibits the measured activity by half.
